Assays:
Format in all cases: biochemical
PI3 K γ = biological target: T1, PI3 K γ (Homo sapiens, UniProt P48736); assay: Inhibitory activity to PI3K γ, PI 3-Kinase (human) HTRF Assay kit; details: read-out: Inhibition rate % to PI3 K γ
T1 construct: purchased Biology, Medicilon
Excerpt: (§1) Study on the inhibitory activity of the compounds of present invention to PI 3κα, PI3κδ and PI3κγ. Two or three concentrations of the compounds are selected to preliminary screening to calculate respectively the activity inhibition rate of the compounds of corresponding concentrations to enzyme, then the compounds with better activity are selected by preliminary screening for IC50 test.
(§2) PI 3-Kinase (human) HTRF™ Assay kit (Cat.33-017, Millipore)
PI 3k γ (Biology, Medicilon)
(§3) 4× Reaction Buffer (Cat.33-002, Millipore) is diluted with ddH2O to 1.33×, and 1M DTT is added to make the final concentration as 6.67 mM. For example, 10 μL DTT is added into 500 μL 4× Reaction Buffer, and water is added to 1.5 mL.
(§4) The Test compounds are dissolved with DMSO to 1 mM as storage liquid. 2 μL of each of storage liquid is added into 48 μL ddH2O, to obtain the 40 μM compounds solution containing 4% DMSO. After mixing, 3 μL of each of the solution is added into 27 μL 4% DMSO (in ddH2O) to obtain the 4 μM compounds solution. 5 μL of each dilute solution is added into 384-well plates, then the final concentration of the compounds in the 20 μL final kinase reaction system is 10 μM and 1 μM respectively contained 1% DMSO. The dilution methods of compounds are similar to the preliminary screening in IC50 test.
(§5) 2×PIP2 working fluid is prepared with 1.33× reaction buffer to the final concentration of 20 μM.
The screening concentration of PI 3k γ kinase: 80 ng/well,
(§6) Kinase is diluted with 2×PIP2 operating fluid, the concentration of kinase operating fluid is 2 times of screening concentration.
(§7) 10 mM ATP is diluted with 1.33× reaction buffer to 400 μM. The concentration of ATP is 100 μM in 20 μL kinase reaction system.
(§8) Stop A and Stop B are mixed according to the proportion of 3:1, and are placed for 2 hours at room temperature to obtain the stop solution available.
(§9) DM C, DM A and DM B are mixed according to the proportion of 18:1:1, and are placed for 2 hours at room temperature to obtain the detection solution available.

PI3K α = biological target: T2, PI3K α (Homo sapiens, UniProt P42336); assay: Inhibitory activity to PI3K α, PI 3-Kinase (human) HTRF Assay kit; details: read-out: % Inhibition Rate to PI3K α
T2 construct: purchased Millipore 14-602
T2 sequence (P42336 whole entry): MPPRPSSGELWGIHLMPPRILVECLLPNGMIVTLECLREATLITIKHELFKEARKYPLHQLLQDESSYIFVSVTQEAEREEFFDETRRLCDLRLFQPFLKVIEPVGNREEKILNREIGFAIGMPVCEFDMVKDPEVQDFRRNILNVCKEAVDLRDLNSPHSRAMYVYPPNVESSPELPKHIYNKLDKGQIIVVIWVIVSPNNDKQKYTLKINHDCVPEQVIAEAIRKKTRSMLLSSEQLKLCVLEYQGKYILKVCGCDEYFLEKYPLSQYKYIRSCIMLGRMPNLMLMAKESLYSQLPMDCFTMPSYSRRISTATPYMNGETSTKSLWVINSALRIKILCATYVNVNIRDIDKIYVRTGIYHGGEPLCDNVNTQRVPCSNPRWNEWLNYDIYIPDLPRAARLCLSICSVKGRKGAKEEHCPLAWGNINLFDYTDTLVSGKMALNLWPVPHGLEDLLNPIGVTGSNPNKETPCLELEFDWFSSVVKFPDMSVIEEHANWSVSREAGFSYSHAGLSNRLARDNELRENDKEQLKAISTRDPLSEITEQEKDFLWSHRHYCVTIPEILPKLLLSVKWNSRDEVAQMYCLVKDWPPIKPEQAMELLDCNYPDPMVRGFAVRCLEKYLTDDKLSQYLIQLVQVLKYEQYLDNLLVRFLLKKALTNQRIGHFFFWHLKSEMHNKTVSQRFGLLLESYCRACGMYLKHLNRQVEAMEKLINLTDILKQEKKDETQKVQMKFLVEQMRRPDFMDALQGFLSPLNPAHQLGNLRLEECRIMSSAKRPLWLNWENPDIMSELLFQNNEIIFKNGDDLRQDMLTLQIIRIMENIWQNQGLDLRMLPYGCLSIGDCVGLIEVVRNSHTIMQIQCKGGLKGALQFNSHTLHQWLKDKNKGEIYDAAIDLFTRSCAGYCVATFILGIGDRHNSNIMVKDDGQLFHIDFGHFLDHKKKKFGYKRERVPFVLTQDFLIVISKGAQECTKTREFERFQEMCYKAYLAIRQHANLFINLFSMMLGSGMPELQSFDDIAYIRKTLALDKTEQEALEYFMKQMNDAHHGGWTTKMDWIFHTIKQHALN
T2 sequence (P27986 whole entry partner): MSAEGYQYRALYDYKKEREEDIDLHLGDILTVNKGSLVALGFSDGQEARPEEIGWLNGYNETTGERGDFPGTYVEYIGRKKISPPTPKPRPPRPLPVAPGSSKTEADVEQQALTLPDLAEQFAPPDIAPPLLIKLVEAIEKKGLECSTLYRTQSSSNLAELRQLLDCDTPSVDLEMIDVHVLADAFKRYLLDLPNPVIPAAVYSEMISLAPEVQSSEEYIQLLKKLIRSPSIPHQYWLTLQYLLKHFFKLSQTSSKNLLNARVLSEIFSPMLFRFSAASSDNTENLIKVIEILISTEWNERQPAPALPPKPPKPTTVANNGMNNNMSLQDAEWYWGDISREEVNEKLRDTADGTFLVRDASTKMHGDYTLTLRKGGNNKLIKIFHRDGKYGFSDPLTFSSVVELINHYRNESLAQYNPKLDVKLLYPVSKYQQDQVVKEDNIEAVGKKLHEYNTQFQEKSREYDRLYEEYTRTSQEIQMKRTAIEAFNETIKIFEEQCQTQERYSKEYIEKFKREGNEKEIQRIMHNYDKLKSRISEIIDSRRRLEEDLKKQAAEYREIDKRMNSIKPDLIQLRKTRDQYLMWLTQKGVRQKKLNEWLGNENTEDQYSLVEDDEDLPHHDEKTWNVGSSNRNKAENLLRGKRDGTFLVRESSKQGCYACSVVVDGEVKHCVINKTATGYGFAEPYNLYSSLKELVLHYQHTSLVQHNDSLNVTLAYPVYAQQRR
Excerpt: as §1, §2
PI 3k α (Cat.14-602, Millipore)
as §3, §4, §5
The screening concentration of PI 3k α kinase: 8 ng/well,
as §6, §7, §8, §9

PI3Kδ = biological target: T3, PI3Kδ (Homo sapiens, UniProt O00329); assay: Inhibitory activity to PI3K δ, PI 3-Kinase (human) HTRF Assay kit; details: read-out: Inhibition rate % to PI3Kδ; for inhibition at 1 µM: 1 μM (Table 7); for inhibition at 10 µM: 10 μM (Table 7)
T3 construct: purchased Millipore 14-604
T3 sequence (O00329 whole entry): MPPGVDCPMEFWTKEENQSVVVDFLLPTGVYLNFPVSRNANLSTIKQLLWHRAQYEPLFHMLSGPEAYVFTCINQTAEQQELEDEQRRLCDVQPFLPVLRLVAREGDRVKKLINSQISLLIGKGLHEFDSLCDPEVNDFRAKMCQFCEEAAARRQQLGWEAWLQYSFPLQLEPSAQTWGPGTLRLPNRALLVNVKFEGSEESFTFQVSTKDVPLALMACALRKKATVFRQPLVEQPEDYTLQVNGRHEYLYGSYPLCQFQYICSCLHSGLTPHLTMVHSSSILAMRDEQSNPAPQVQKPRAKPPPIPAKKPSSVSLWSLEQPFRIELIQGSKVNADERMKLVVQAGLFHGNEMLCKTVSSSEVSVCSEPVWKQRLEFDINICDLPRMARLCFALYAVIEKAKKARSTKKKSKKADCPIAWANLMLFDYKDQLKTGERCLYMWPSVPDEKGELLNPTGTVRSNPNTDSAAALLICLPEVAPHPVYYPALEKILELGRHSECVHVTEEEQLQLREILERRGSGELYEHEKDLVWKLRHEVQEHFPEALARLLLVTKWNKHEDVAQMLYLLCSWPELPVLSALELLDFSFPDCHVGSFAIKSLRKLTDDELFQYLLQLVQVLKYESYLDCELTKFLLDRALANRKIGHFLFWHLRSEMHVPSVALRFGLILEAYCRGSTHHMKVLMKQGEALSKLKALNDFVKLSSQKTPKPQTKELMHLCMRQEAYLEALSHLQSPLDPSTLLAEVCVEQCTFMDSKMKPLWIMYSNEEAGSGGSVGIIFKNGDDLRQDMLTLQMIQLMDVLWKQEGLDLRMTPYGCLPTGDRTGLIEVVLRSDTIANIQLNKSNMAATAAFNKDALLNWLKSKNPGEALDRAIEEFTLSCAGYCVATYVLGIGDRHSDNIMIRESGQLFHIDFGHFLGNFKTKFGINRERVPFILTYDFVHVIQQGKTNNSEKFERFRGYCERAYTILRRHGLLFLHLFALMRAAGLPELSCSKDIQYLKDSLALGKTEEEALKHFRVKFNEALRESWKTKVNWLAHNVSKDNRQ
T3 sequence (P27986 whole entry partner): as the sequence (P27986 whole entry partner) above
Description: Study on the inhibitory activity of the compounds of present invention to PI 3κα, PI3κδ and PI3κγ.
as §2
For example, 10 μL DTT is added into 500 μL 4× Reaction Buffer, and water is added to 1.5 mL.
The Test compounds are dissolved with DMSO to 1 mM as storage liquid. 2 μL of each of storage liquid is added into 48 μL ddH2O, to obtain the 40 μM compounds solution containing 4% DMSO. After mixing, 3 μL of each of the solution is added into 27 μL 4% DMSO (in ddH2O) to obtain the 4 μM compounds solution. […]
The screening concentration of PI 3k δ kinase: 2 ng/well,
as §6
The concentration of ATP is 100 μM in 20 μL kinase reaction system.
as §8, §9

PDGFR β enzyme = biological target: T4, PDGFR β enzyme (Homo sapiens, UniProt P09619); assay: Inhibitory activity to PDGFR β enzyme, HTRF kinEASE TK kit; details: read-out: Inhibition rate % (PDGFR β)
T4 construct: purchased Invitrogen P3082
T4 sequence (P09619 33-1106): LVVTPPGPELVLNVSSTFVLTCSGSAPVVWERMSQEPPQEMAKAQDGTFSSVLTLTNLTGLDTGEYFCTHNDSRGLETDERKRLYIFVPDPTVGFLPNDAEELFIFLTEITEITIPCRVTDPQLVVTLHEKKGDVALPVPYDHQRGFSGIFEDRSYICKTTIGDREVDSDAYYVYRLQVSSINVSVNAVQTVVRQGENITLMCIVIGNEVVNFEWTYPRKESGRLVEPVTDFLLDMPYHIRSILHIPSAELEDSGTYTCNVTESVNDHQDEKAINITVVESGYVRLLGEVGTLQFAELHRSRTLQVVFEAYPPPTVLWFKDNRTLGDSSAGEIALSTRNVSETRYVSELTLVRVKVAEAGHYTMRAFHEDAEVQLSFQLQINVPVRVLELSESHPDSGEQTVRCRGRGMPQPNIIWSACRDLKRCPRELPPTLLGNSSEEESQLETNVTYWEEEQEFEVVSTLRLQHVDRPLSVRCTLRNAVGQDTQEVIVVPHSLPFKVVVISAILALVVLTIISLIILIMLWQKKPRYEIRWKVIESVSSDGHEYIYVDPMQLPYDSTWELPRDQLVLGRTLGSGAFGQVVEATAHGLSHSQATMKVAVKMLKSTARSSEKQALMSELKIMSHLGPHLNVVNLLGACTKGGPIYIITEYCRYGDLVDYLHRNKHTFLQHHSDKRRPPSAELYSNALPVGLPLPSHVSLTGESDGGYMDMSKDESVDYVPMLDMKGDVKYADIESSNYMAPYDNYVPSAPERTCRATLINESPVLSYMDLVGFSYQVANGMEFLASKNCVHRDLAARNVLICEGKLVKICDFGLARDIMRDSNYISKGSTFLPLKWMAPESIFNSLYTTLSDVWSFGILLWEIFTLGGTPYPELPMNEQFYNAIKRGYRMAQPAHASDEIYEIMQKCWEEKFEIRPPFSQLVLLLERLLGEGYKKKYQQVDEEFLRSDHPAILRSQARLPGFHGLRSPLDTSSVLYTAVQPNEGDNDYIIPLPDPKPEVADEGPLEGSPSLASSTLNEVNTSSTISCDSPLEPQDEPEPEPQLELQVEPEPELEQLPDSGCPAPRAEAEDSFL
Description: HTRF kinEASE TK (Cat.62TK0PEC, Cisbio)
PDGFR β enzyme (Cat.P3082, Invitrogen)
1 mL 1×Kinase Buffer includes 200 μL 5×Enzyme buffer, 5 μL 1M MgCl2, 1 μL 1M DTT, 1 μL 1M MnCl2, 20 μL 2500 nM SEB, 773 μL ddH2O.
TK-Substrate and ATP are diluted to 2.5 times of reaction concentration with 1×PDGFR β Kinase Buffer.
5×PDGFR β enzyme working solution is prepared with 1×PDGFR β kinase buffer.
4×Sa-XL665 working solution is prepared with Detection Buffer.
TK-Ab-Cryptate is diluted 100 times with Detection Buffer to use as working solution.

T1 sequence (P48736 whole entry): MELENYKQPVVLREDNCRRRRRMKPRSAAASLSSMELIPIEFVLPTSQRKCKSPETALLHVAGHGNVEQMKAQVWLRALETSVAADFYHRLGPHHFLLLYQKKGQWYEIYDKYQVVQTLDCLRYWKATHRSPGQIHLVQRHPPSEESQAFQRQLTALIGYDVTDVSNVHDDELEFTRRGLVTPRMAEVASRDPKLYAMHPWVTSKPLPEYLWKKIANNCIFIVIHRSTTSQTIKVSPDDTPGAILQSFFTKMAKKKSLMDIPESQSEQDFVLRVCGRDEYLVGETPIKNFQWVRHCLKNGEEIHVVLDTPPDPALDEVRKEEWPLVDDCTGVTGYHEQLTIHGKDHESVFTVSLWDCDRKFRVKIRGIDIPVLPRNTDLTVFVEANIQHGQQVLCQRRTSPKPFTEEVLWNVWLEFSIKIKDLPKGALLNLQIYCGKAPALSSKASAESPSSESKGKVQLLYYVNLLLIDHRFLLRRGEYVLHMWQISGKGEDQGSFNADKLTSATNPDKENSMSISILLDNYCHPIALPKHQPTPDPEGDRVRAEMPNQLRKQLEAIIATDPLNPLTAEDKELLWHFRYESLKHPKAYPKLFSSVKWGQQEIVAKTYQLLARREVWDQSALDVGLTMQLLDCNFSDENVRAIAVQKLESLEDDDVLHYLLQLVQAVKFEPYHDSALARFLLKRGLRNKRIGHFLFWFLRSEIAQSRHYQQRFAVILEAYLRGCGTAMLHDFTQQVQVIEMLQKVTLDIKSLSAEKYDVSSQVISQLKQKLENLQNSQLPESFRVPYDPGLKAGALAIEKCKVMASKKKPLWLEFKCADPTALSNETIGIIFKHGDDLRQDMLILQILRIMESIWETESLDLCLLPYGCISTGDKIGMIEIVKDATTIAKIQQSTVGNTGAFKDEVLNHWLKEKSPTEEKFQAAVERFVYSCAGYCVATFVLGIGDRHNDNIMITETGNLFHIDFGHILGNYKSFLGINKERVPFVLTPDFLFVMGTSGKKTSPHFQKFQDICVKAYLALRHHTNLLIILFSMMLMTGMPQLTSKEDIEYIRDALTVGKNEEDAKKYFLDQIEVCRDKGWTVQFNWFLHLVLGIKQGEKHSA

SMILES | inhibition at 1 µM (PI3 K γ) [%] | inhibition at 10 µM (PI3 K γ) [%] | inhibition at 1 µM (PI3K α) [%] | inhibition at 10 µM (PI3K α) [%] | inhibition at 1 µM (PI3Kδ) [%] | inhibition at 10 µM (PI3Kδ) [%] | inhibition at 1 µM (PDGFR β enzyme) [%] | inhibition at 10 µM (PDGFR β enzyme) [%]
c1ccc(-c2ccnc3ccc(Nc4nc(NC5CCC5)c5nc[nH]c5n4)cc23)cc1 [MED1007-75, N6-cyclobutyl-N2-(4-phenylquinoline-6-yl)-9H-purine-2,6-diamine] | 6.93 | 10.9 | 11.1 | 51.3 | 10.9 | 42.6 | 13.2 | 8.74
c1cc(-c2ccc3c(c2)OCO3)c2cc(Nc3nc(NC4CC4)c4nc[nH]c4n3)ccc2n1 [MED1007-85, N2-(4-(benzo[1,3]-dioxole-5-yl)quinoline-6-yl)-N6-cyclopropane-9H-purine-2,6-diamine] | 16.8 | 41.9 | 66.2 | 90.1 | 54.1 | 113 | -3.44 | 29.8
FC(F)(F)Cn1cnc2c(NC3CC3)nc(Nc3ccc4nccc(-c5ccccc5)c4c3)nc21 [MED1007-65, N6-cyclopropyl-N2-(4-phenylquinoline-6-yl)-9-(2,2,2-trifluoroethyl)-9H-purine-2,6-diamine] | 1.54 | 37.2 | 0.69 | 10.2 | 7.48 | 38.4 | 21.5 | 14
COCCCNc1nc(Nc2ccc3nccc(-c4ccccc4)c3c2)nc2[nH]cnc12 [MED1007-67, N6-(3-methoxypropyl)-N2-(4-phenylquinoline-6-yl)-9H-purine-2,6-diamine] | 0.71 | 10.2 | 3.77 | 37.2 | 11.3 | 32 | 22.2 | 18.7
CSc1cccc(-c2ccnc3ccc(Nc4nc(NC5CC5)c5nc[nH]c5n4)cc23)c1 [MED1007-88, N6-cyclopropyl-N2-(4-(3-(methylthio)phenyl)quinoline-6-yl)-9H-purine-2,6-diamine] | 7.02 | 41.5 | 46.2 | 110 | 31 | 103 | -5.37 | 2.89
COCCNc1nc(Nc2ccc3nccc(-c4ccccc4)c3c2)nc2[nH]cnc12 [MED1007-68, N6-(2-methoxyethyl)-N2-(4-phenylquinoline-6-yl)-9H-purine-2,6-diamine] | -0.02 | 10.8 | 7.74 | 51.9 | 20.7 | 42.3 | 18.7 | 11.7
c1ccc(-c2ccnc3ccc(Nc4nc(OC5CCCCC5)c5nc[nH]c5n4)cc23)cc1 [MED1007-107, N-(6-cyclohexyloxy-9H-purine-2-yl)-4-phenyl quinoline-6-amine] |  |  | 29.9 | 65.8 | 29.3 | 119 |  | 
c1ccc(-c2ccnc3ccc(Nc4nc(NC5CCCC5)c5nc[nH]c5n4)cc23)cc1 [MED1007-106, N6-cyclopentyl-N2-(4-phenylquinoline-6-yl)-9H-purine-2,6-diamine] |  |  | 24.4 | 97.4 | 32.9 | 89.1 |  | 
c1ccc(Oc2nc(Nc3ccc4nccc(N5CCNCC5)c4c3)nc3[nH]cnc23)cc1 [MED1007-54, N-(6-phenoxy-9H-purine-2-yl)-4-(piperazine-1-yl) quinoline-6-amine] | -6.81 | -4.67 |  |  | 13.3 | 42.4 | 7.3 | 43.7

— US9718823B2, “2, 6-Di-nitrogen-containing substituted purine derivative, and preparation method, pharmaceutical composition and use thereof” (Zhejiang Medicine Co., Ltd. Xinchang Pharmaceutical Factory, priority 2013, dated 2017)
